Consider 13 molecules from PubChem BioAssay (NCI).

Among the test systems are CAKI-1 renal; IGROV1 ovarian; CCRF-CEM leukemia; SNB-75 CNS; NCI-H460 lung; HT29 colon; NCI/ADR-RES ovarian; KM12 colon; SR leukemia; HL-60(TB) leukemia.
What all share (assay): DTP human tumour cell line panel, 48 h

SMILES strings stand for the structures. Values joined by “and” are separate entries in the source; they are usually repeats but may differ in a detail not shown here. Equal entries are not always repeated.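 Five compound concentrations were applied to cells in 96-well plates for 48 hours; endpoints were derived by simple linear interpolation of the resulting dose-response curve. At the GI50, growth is halved. At the TGI there is no net growth.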

In general, GI50 refers to the concentration at which growth is held to half of that of the control. The term TGI denotes the concentration at which net growth stops. In the case of `COc1cc(C(=O)/C=C/c2c(C)n([O-])c3ccc(Cl)cc3[n+]2=O)cc(OC)c1OC`, the GI50 with CAKI-1 renal was 10.3 µM; with IGROV1 ovarian, 9.07 µM; in the test with CCRF-CEM leukemia, 2.14 µM; in the test on SNB-75 CNS, 5.18 µM; in the test on NCI-H460 lung it was 12.5 µM; with HT29 colon it was 3.94 µM. The GI50 is 4.89 µM with NCI/ADR-RES ovarian, 23.2 µM in the test on KM12 colon, 1.86 µM in the test on SR leukemia and 5.76 µM in the test with HL-60(TB) leukemia. In addition, the concentration for total growth inhibition (TGI) with CAKI-1 renal is greater than 100 µM; with IGROV1 ovarian it was greater than 100 µM; in the test on CCRF-CEM leukemia, 18.3 µM; with SNB-75 CNS, greater than 100 µM; with NCI-H460 lung, 36.6 µM; with HT29 colon it was greater than 100 µM. The TGI in the test with NCI/ADR-RES ovarian is 35.8 µM; in the test with KM12 colon it was greater than 100 µM; with SR leukemia it was 5.65 µM; in the test on HL-60(TB) leukemia it was 23.5 µM.
Take `c1ccc(-c2nc3ccccc3[nH]2)c(OCCCCCOc2ccccc2-c2nc3ccccc3[nH]2)c1`: the GI50 in the test with CAKI-1 renal is 12.5 µM; in the test on IGROV1 ovarian it was 18.1 µM; with CCRF-CEM leukemia, 4.14 µM; in the test with SNB-75 CNS, 8.78 µM; in the test on NCI-H460 lung, 3.75 µM; with HT29 colon, 12.1 µM. The GI50 in the test with NCI/ADR-RES ovarian is 5.74 µM; with KM12 colon it was 15.8 µM; in the test on SR leukemia, 2.27 µM; with HL-60(TB) leukemia it was 2.57 µM. The TGI with CAKI-1 renal turned out to be 29.9 µM; with IGROV1 ovarian, 47.1 µM; with CCRF-CEM leukemia it was 29.8 µM; with SNB-75 CNS, 47.4 µM; in the test with NCI-H460 lung it was 25.6 µM; in the test with HT29 colon it was 44.1 µM. Moreover, the TGI in the test with NCI/ADR-RES ovarian was 33.3 µM; in the test with KM12 colon, 72.4 µM; in the test with SR leukemia it was 13.1 µM; with HL-60(TB) leukemia, 7.76 µM.
For `CCCCCCCC(=O)OC[n+]1cccc(-c2c(COC(=O)NC(C)C)c(COC(=O)NC(C)C)c3n2CCC3)c1`, the TGI in the test on CAKI-1 renal was greater than 87.5 µM; with IGROV1 ovarian, greater than 100 µM; with CCRF-CEM leukemia it was greater than 84 µM; with SNB-75 CNS, greater than 100 µM; in the test on NCI-H460 lung, greater than 100 µM; in the test on HT29 colon, greater than 100 µM. The TGI in the test on NCI/ADR-RES ovarian was greater than 100 µM; in the test on KM12 colon it was greater than 100 µM; in the test with SR leukemia, greater than 100 µM; in the test on HL-60(TB) leukemia it was greater than 82.1 µM.
Turning to `COc1ccc2cc1Oc1ccc(cc1)CC1c3c(cc(OC)c4c3Oc3cc5c(cc3O4)CCNC5C2)CCN1C` (stereo not drawn), the GI50 with CAKI-1 renal is 1.67 µM; with IGROV1 ovarian it was 1.47 µM; with SNB-75 CNS it was 1.68 µM; in the test with NCI-H460 lung it was 1.62 µM; with HT29 colon, 0.626 µM; in the test on NCI/ADR-RES ovarian it was 1.55 µM. In addition, in the test on KM12 colon, the GI50 is 1.46 µM. Moreover, the TGI was 5.77 µM and 3.62 µM in the test with CAKI-1 renal; 3.41 µM and 2.82 µM in the test with IGROV1 ovarian; 3.61 µM with CCRF-CEM leukemia; 3.06 µM with SNB-75 CNS; 3.25 µM with NCI-H460 lung; 1.91 µM in the test on HT29 colon. Further, the TGI in the test with NCI/ADR-RES ovarian is 3.62 µM and 3.19 µM; with KM12 colon, 3.33 µM and 2.85 µM; in the test with SR leukemia, 2.51 µM; with HL-60(TB) leukemia, 3.67 µM.
On to `COc1ccc(-c2nn(-c3cccc(Cl)c3)cc2-c2c(C#N)c(=O)n3[nH]c(-c4ccc(C)o4)nc3c2C#N)cc1`, for which the GI50 in the test on CAKI-1 renal is 6.8 µM; with IGROV1 ovarian, 2.6 µM; with CCRF-CEM leukemia it was 2.45 µM; with SNB-75 CNS, 1.56 µM; in the test with NCI-H460 lung, 6.38 µM; in the test with HT29 colon it was 7.21 µM. Besides, the GI50 was greater than 50 µM in the test on NCI/ADR-RES ovarian, 3.54 µM in the test on KM12 colon, 4.22 µM in the test with SR leukemia and 4.88 µM in the test with HL-60(TB) leukemia. Also, the total growth inhibition concentration (TGI) in the test with CAKI-1 renal is greater than 50 µM; in the test on IGROV1 ovarian, 18.5 µM; in the test on CCRF-CEM leukemia it was greater than 50 µM; in the test with SNB-75 CNS, greater than 50 µM; with NCI-H460 lung, greater than 50 µM; with HT29 colon, 33.6 µM. Moreover, the TGI with NCI/ADR-RES ovarian was greater than 50 µM; with KM12 colon it was greater than 50 µM; with SR leukemia, 22.1 µM; in the test with HL-60(TB) leukemia, 23.5 µM.
With `O=[N+]([O-])/C(=C/C=C/c1ccccc1)c1ccccc1`, the GI50 was 0.805 µM in the test with CAKI-1 renal; 1.92 µM in the test on IGROV1 ovarian; 0.764 µM in the test with CCRF-CEM leukemia; 2.22 µM in the test with SNB-75 CNS; 3.3 µM in the test with NCI-H460 lung; 3.23 µM with HT29 colon. The GI50 in the test with NCI/ADR-RES ovarian is 3.56 µM; in the test with KM12 colon, 2.04 µM; in the test on SR leukemia, 1.01 µM; with HL-60(TB) leukemia it was 1.09 µM. The TGI in the test on CAKI-1 renal was 3.06 µM; with IGROV1 ovarian, 4.54 µM; with CCRF-CEM leukemia, 2.39 µM; in the test with SNB-75 CNS, 7.27 µM; with NCI-H460 lung, 11.3 µM; in the test with HT29 colon, 7.18 µM. Further, the TGI in the test with NCI/ADR-RES ovarian was 11.9 µM; in the test with KM12 colon, 4.29 µM; in the test with SR leukemia it was 4.05 µM; in the test with HL-60(TB) leukemia, 3.55 µM.
Take `CC(C)OC(=O)c1cc(NC(=S)OC(C)C)ccc1Cl`: the TGI with CAKI-1 renal was 35.3 µM; in the test on IGROV1 ovarian, greater than 56.2 µM; with CCRF-CEM leukemia, greater than 96.3 µM; in the test on SNB-75 CNS, 47.5 µM; with NCI-H460 lung it was greater than 55.3 µM; in the test with HT29 colon, 38.6 µM. The total growth inhibition concentration (TGI) in the test with NCI/ADR-RES ovarian is greater than 63.4 µM; with KM12 colon, 44.3 µM; in the test with SR leukemia, greater than 100 µM; with HL-60(TB) leukemia, greater than 31.6 µM.
With `CN(C)CC(=O)N1CCc2c([nH]c3ccccc23)C1c1cccnc1` (stereo not drawn), the TGI in the test on CAKI-1 renal, with IGROV1 ovarian, in the test on CCRF-CEM leukemia, in the test with SNB-75 CNS, in the test with NCI-H460 lung and in the test with HT29 colon was greater than 100 µM throughout. The TGI in the test on NCI/ADR-RES ovarian, in the test with KM12 colon, in the test on SR leukemia and in the test on HL-60(TB) leukemia was greater than 100 µM each time. The GI50 in the test with NCI/ADR-RES ovarian is greater than 100 µM.
`OCCN1CCCN(CCCN2c3ccccc3Sc3ccc(C(F)(F)F)cc32)CC1`: the GI50 is 2.3 µM in the test with CAKI-1 renal; 2.68 µM in the test with IGROV1 ovarian; 2.42 µM in the test with CCRF-CEM leukemia; 1.21 µM with SNB-75 CNS; 1.95 µM in the test on NCI-H460 lung; 1.76 µM in the test on HT29 colon. In addition, the GI50 is 3.57 µM in the test with NCI/ADR-RES ovarian, 2.27 µM with KM12 colon, 2.18 µM with SR leukemia and 1.91 µM in the test on HL-60(TB) leukemia. For the same molecule, the TGI with CAKI-1 renal was determined as 6.26 µM; with IGROV1 ovarian, 7.22 µM; with CCRF-CEM leukemia it was 5.76 µM; in the test with SNB-75 CNS, 8.51 µM; in the test on NCI-H460 lung it was 3.77 µM; in the test with HT29 colon, 3.75 µM. The total growth inhibition concentration (TGI) in the test with NCI/ADR-RES ovarian was determined as 14.7 µM; in the test with KM12 colon, 4.69 µM; with SR leukemia, 4.75 µM; in the test with HL-60(TB) leukemia it was 3.74 µM.
Consider `N#CC(C#N)=C/C=C/c1ccccc1[N+](=O)[O-]`, for which the TGI in the test on CAKI-1 renal, with IGROV1 ovarian, in the test with CCRF-CEM leukemia, in the test with SNB-75 CNS, in the test on NCI-H460 lung and in the test with HT29 colon was greater than 10 µM each time. The TGI in the test with NCI/ADR-RES ovarian is 4.84 µM; in the test with KM12 colon it was greater than 10 µM; in the test with SR leukemia, greater than 10 µM; in the test with HL-60(TB) leukemia it was greater than 10 µM.
As to `Cc1nc2sc(C(=O)Nc3cccc(Cl)c3)c(N)c2cc1C(O)c1ccccc1` (stereo not drawn), the GI50 was 0.789 µM in the test on CAKI-1 renal; 2.27 µM with IGROV1 ovarian; 0.483 µM in the test on CCRF-CEM leukemia; 0.243 µM in the test with SNB-75 CNS; 0.379 µM in the test with NCI-H460 lung; 0.387 µM with HT29 colon. For the same molecule, the GI50 was 0.929 µM in the test on NCI/ADR-RES ovarian, 0.577 µM in the test with KM12 colon, 0.414 µM with SR leukemia and 0.401 µM in the test with HL-60(TB) leukemia. Moreover, the total growth inhibition concentration (TGI) was 17 µM in the test on CAKI-1 renal; 17 µM with IGROV1 ovarian; greater than 100 µM in the test on CCRF-CEM leukemia; 12.3 µM with SNB-75 CNS; 1.85 µM in the test on NCI-H460 lung; greater than 100 µM in the test on HT29 colon. Besides, the concentration for total growth inhibition (TGI) in the test on NCI/ADR-RES ovarian was 13.1 µM; in the test with KM12 colon it was 24.5 µM; with SR leukemia it was greater than 100 µM; with HL-60(TB) leukemia, 6.67 µM.
Regarding `CN1CCC(C(=O)Nc2n[nH]c3nnc(-c4ccccc4)cc23)CC1`, the GI50 is greater than 25 µM with CAKI-1 renal; greater than 25 µM in the test with IGROV1 ovarian; greater than 25 µM in the test with CCRF-CEM leukemia; greater than 5.22 µM in the test on SNB-75 CNS; greater than 25 µM in the test on NCI-H460 lung; greater than 17.8 µM in the test on HT29 colon. The GI50 in the test with NCI/ADR-RES ovarian was greater than 25 µM; with KM12 colon, 19.4 µM; with SR leukemia, greater than 25 µM; in the test on HL-60(TB) leukemia, greater than 25 µM. The TGI in the test with CAKI-1 renal, with IGROV1 ovarian, in the test on CCRF-CEM leukemia, with SNB-75 CNS, with NCI-H460 lung and with HT29 colon was greater than 25 µM in each case. Moreover, the TGI in the test on NCI/ADR-RES ovarian, with KM12 colon, with SR leukemia and with HL-60(TB) leukemia was greater than 25 µM throughout.
For `NCC[PH+](c1ccccc1)c1ccccc1.NCC[PH+](c1ccccc1)c1ccccc1.[Cl-].[Pt+4]`, the GI50 was greater than 100 µM in the test on CAKI-1 renal; 29.3 µM with IGROV1 ovarian; 12.2 µM with CCRF-CEM leukemia; greater than 100 µM in the test with SNB-75 CNS; 84.5 µM in the test with NCI-H460 lung; 85 µM with HT29 colon. Also, the GI50 was greater than 100 µM in the test on NCI/ADR-RES ovarian, greater than 100 µM in the test on KM12 colon, 29.7 µM in the test on SR leukemia and 1.8 µM in the test on HL-60(TB) leukemia. In addition, the concentration for total growth inhibition (TGI) with CAKI-1 renal is greater than 100 µM; with IGROV1 ovarian, greater than 100 µM; in the test on CCRF-CEM leukemia, greater than 73.2 µM; in the test with SNB-75 CNS, greater than 100 µM; in the test on NCI-H460 lung it was greater than 100 µM; in the test with HT29 colon, greater than 100 µM. Besides, the total growth inhibition concentration (TGI) with NCI/ADR-RES ovarian was greater than 100 µM; in the test on KM12 colon, greater than 100 µM; in the test on SR leukemia, greater than 100 µM; with HL-60(TB) leukemia it was greater than 57.8 µM.
